This note sets out measurements from US5629324A, “Thrombin inhibitors” (Merck & Co., Inc., priority 1995, dated 1997).

Each structure is given as a SMILES string.

The test addresses T1, human a-thrombin (Homo sapiens, UniProt P00734).
T1 construct: human a-thrombin
The test can be described thus: Proteinase inhibition, human a-thrombin. The class given is biochemical. To be noted: 25° C., 0.05M TRIS buffer pH 7.4, 0.15M NaCl, 0.1% PEG. The procedure: Assays of human a-thrombin and bovine trypsin were performed at 25° C. in 0.05M TRIS buffer pH 7.4, 0.15M NaCl, 0.1% PEG. Trypsin assays also contained 1 mM CaCl2.
Concentrations of stock solutions of Z-GPR-afc were determined from measurements of absorbance at 380 nm of the 7-amino-4-trifluoromethyl coumarin produced upon complete hydrolysis of an aliquot of the stock solution by thrombin.
Times required to achieve equilibration between enzyme and inhibitor were determined in control experiments. Initial velocities of product formation in the absence (Vo) or presence of inhibitor (Vi) were measured. Assuming competitive inhibition, and that unity is negligible compared Km /[S], […] (where [S], [I], and e respectively represent the total concentrations, of substrate, inhibitor and enzyme), the equilibrium constant (Ki) for dissociation of the inhibitor from the enzyme can be obtained from the dependence of Vo /Vi on [I] shown in equation 1.

As for `N=C(N)N1CCC(CNC(=O)[C@@H]2CCCN2C(=O)CC(c2ccccc2)c2ccccc2)CC1`, the Ki was found to be 2.7 nM.

`N=C(N)N1CCC(CNC(=O)[C@@H]2CCCN2C(=O)C2(O)c3ccccc3-c3ccccc32)CC1` yielded a Ki of 1.1 nM.
